What all share (type): cell-based
Assay [1] concerns mature adipocytes (3T3-L1 cells). Kind of assay: Glucose uptake enhancement inhibited by cytochalasin B. To be noted: cytochalasin B 40 μM added to the 4-hydroxyderricin 7.8 μM, insulin 1 μg/mL and negative control groups. The protocol: The influence of cytochalasin B on 2-deoxyglucose uptake into matured adipocytes during the stimulation with the sample in the adipocytes was tested in accordance with the method shown in Example 83 on whether or not the enhancing action of 4-hydroxyderricin on glucose uptake shown in Example 83 is inhibited by cytochalasin B, which is an inhibitor of a glucose transporter.
Specifically, as a sample, a group with addition of a dimethyl sulfoxide solution of 4-hydroxyderricin so as to have a final concentration of 7.8 μM was set. Here, there were set a group without addition of the sample as a negative control and a group with addition of insulin so as to have a final concentration of 1 μg/mL as a positive control. Furthermore, there was set a group with addition of cytochalasin B (manufactured by nacalai tesque, 10435-81) to each group so as to have a final concentration of 40 μM in the same time as the time of addition of insulin. Thereafter, 2-deoxy-[1,2-^3H(N)]-glucose subjected to uptake into the adipocytes was determined in the same manner.

Assay [2] deals with mature adipocytes which were induced to be differentiated by xanthoangelol. Description: Glucose uptake into adipocytes induced to be differentiated by xanthoangelol. The note with it: stimulation with insulin 1 μg/mL; adipocytes differentiated with xanthoangelol 10 μM. The protocol: Adipocytes which were induced to be differentiated by xanthoangelol were obtained, and thereafter it was confirmed on whether the glucose uptake into the adipocytes is enhanced by stimulation with insulin or 4-hydroxyderricin.
Specifically, as a sample, there was set a group with addition of a dimethyl sulfoxide solution of xanthoangelol having a final concentration of 10 μM. Thereafter, the medium and the sample were exchanged in the same manner as in the method described in Example 82 except that 3-isobutyl-1-methylxanthine having a final concentration of 0.5 mM was added concurrently with the addition of dexamethasone, to give mature adipocytes which were induced to be differentiated by xanthoangelol.
Next, the amount of 2-deoxyglucose uptake into the mature adipocytes during the stimulation with insulin or 4-hydroxyderricin in the resulting mature adipocytes was determined in the same manner as in the method described in Example 83.
Specifically, there were set the group without the addition and the group with addition of insulin having a final concentration of 1 μg/mL or 4-hydroxyderricin having a final concentration of 20 μM. Thereafter, the amount of 2-deoxy-[1,2-^3H(N)]-glucose uptake into the adipocytes was determined in the same manner.

Assay [3] relates to insulin-resistant mature adipocytes. Description: Enhancing action on glucose uptake into insulin-resistant (TNF-α treated) mature adipocytes. To be noted: group treated with insulin; mature adipocytes treated with mouse-derived TNF-α 10 or 20 ng/mL. On the procedure: It is said that tumor necrosis factor a (TNF-α) is deeply involved in insulin resistance, and it has been known that a signal from an insulin receptor is inhibited by treating mature adipocytes with TNF-α, so that a reaction of glucose uptake is inhibited by insulin stimulation (Proc. Natl. Acad. Sci. USA, vol. 91, p 4854-4858 (1994)). The enhancing action by 4-hydroxyderricin on glucose uptake into mature adipocytes in which insulin resistance was induced by TNF-α was evaluated.
The induction of differentiation into mature adipocytes was carried out in the same manner as in the method described in Example 83, except that after preparation of the mature adipocytes, in order to induce insulin resistance in these mature adipocytes, mouse-derived TNF-α (manufactured by Cosmobio, 3410) was added to the medium so as to have a final concentration of 10 ng/mL or 20 ng/mL, and the adipocytes were cultured for additional 2 days. […]
The enhancing action on glucose uptake was evaluated in the same manner as in the method described in Example 83. For each of the cells prepared in item (1) of Example 95 mentioned above, there were set a group containing 4-hydroxyderricin at a final concentration of 30 μM, a group without addition of the sample as a negative control, and a group with treatment with insulin, and the radioactivity of each group was determined. […]

For the molecule `C=C1[C@@H](C)[C@H]2[C@H](Cc3ccccc3)NC(=O)[C@]23OC(=O)/C=C/[C@H](O)CCC[C@@H](C)C/C=C/[C@H]3[C@@H]1O` [cytochalasin B, reference compound], the “2-deoxy-[1,2-3H(N)]-glucose uptake on addition of cytochalasin B” value in assay [1] is given as “almost completely inhibited”.

Take “insulin: insulin (manufactured by TAKARA BIO INC.), positive control”: the “2-deoxy-[1,2-3H(N)]-glucose uptake” value in assay [2] is “enhancement of 2-deoxy-[1,2-^3H(N)]-glucose uptake”. In addition, in assay [3], the “enhancing action on glucose uptake, increase without TNF-α defined as 100%” value is “around 40%”.
